In patent US20120003661A1, “METHODS AND DEVICES FOR THE SELECTIVE DETECTION OF MICROORGANISMS” (C3 JIAN, INC., priority 2010, published 2012):
Entries after “also recorded” stand apart in the source; their conditions may differ.

What follows are substances tested on bacteria, fungi, and/or yeasts. Settings: microorganism(s) listed as target(s) of the targeting peptide; wrapped target lists given cell by cell.
Assay type: binding
With PF-634 (MPKARPVNHNKKKSKITIKSNFTLFYMFNP) the “Target(s)” value was “C. albicans hyphae”.
“PF-073 (CPSVTMDACALLQKFDFCNNISHFRHFFAIKQPIER)” was tested, and the “Target(s)” value was “S. epidermidis, M. luteus, P. aeruginosa,; also recorded: C. albicans, MRSA,; also recorded: S. pneumoniae, E. faecalis”.
Rv2369c (VRQVPVDRPESRHQKPGDVPRDPRC) was tested, and the “Target(s)” value was “C. albicans”.
In the case of PF-150 (EIQAKGTG), the “Target(s)” value is reported as “S. epidermidis, MRSA”.
For PF-156 (LITAEQPATAPIAGK), the “Target(s)” value was “S. epidermidis, C. jeikeium”.
For “PF-062 (MKKKRINNDILGRMIYSSSIDKRNLYNLKYYE)”, the “Target(s)” value was “S. epidermidis, M. luteus, E. coli,; also recorded: P. aeruginosa, MRSA, S. pneumoniae,; also recorded: E. faecalis, C. jeikeium”.
With PF-158 (VRLESRPADLPE) the “Target(s)” value was “S. epidermidis”.
With PF-003 (MNNWIKVAQISVTVINEVIDIMKEKQNGGK) the “Target(s)” value was “S. epidermidis, M. luteus, P. mirabilis,; also recorded: C. albicans, MRSA, C. jeikeium”.
1T-276 (ILTLLILGSIGFFILKIKLKLGRF) was tested, and the “Target(s)” value was “A. naeslundii, F. nucleatum, P. gingivalis,; also recorded: S. epidermidis, S. gordonii,; also recorded: gordonii, S. mitis, S. mutans, S. oralis,; also recorded: S. sanguinis”.
PF-022 (MINELKNKNSGIMNNYVVTKESKL) was tested, and the “Target(s)” value was “M. luteus, P. mirabilis, E. coli, P. aeruginosa,; also recorded: C. albicans, MRSA,; also recorded: S. pneumoniae, E. faecalis, C. jeikeium,; also recorded: C. jejuni”.
With PF-031 (MPHHSTTSSRIVVPAHQSNMASTPNLSITP) the “Target(s)” value was “M. luteus, C. albicans”.
For PF-S024 (SKRGRKRKDRRKKKANHGKRPNS), the “Target(s)” value was “Corynebacteria spp”.
With “Rv2561 (QHQCPGMRPAPADAPEVPHAARADQKRPSLRL)” the “Target(s)” value was “C. albicans”.
For PF-164 (EEVSRALAGIGLGLGCRIG), the “Target(s)” value was “S. epidermidis, M. luteus, E. coli,; also recorded: C. jeikeium”.
1T-299 (SMLTSFLRSKNTRSLKMYKDVHF) was tested, and the “Target(s)” value was “A. naeslundii, F. nucleatum, S. epidermidis,; also recorded: S. gordonii, S. mitis,; also recorded: S. mutans, S. oralis, S. salivarious,; also recorded: S. sanguinis”.
For 1T-288 (RWVGGEPSADIYLSAKDTKT), the “Target(s)” value was “F. nucleatum, S. gordonii, S. salivarious,; also recorded: S. sanguinis”.
For PF-166 (SKAVSRKRSI), the “Target(s)” value was “E. coli, C. jeikeium”.
For Rv3760 (GLITVFAGTARILQLRRAAKKTHAAALR), the “Target(s)” value was “C. albicans”.
With PF-147 (RRPRRRRSGHGQSASAA) the “Target(s)” value was “S. epidermidis, M. luteus, MRSA”.
With PF-097 (QPTQGEQGTRPRRPTPMRGLLI) the “Target(s)” value was “C. jeikeium”.
With “PF-S003 (ALALLKQDLLNFEGRGRIITSTYLQFNEGCVP)” the “Target(s)” value was “yeast and hyphal forms”.
For TT-306 (KILNEAEGKLLKVIEKNGEIDIEEI), the “Target(s)” value was “F. nucleatum”.
PF-028 (ALDCSEQSVILWYETILDKIVGVIK) was tested, and the “Target(s)” value was “S. epidermidis, M. luteus, MRSA”.
With PF-011 (MFCYYKQHKGDNFSIEEVKNIIADNEMKVN) the “Target(s)” value was “M. luteus, E. coli, P. aeruginosa,; also recorded: S. pneumoniae, C. jeikeium”.
For PF-172 (LTGVRRPWRAPWAGTSGWALR), the “Target(s)” value was “S. epidermidis, M. luteus, E. coli,; also recorded: P. aeruginosa, MRSA, E. faecalis,; also recorded: C. jejuni”.
With “1T-253 (KTKESLTQQEKKFLKDYDRKSLHHFRDILTYCFILDKLTNK)” the “Target(s)” value was “A. naeslundii, F. nucleatum, P. gingivalis,; also recorded: S. epidermidis, S. gordonii,; also recorded: S. mitis, S. mutans, S. oralis,; also recorded: S. salivarious, S. sanguinis”.
With PF-018 (YYKTYFKEV) the “Target(s)” value was “E. coli, C. jeikeium”.
For PF-159 (TMAFVEKAQLRVPVGDDLPV), the “Target(s)” value was “S. epidermidis”.
With PF-130 (LQRSDEESMPRRHEKYS) the “Target(s)” value was “E. faecalis, C. jeikeium, C. jejuni”.

Same assay, conditions: microorganism(s) that the targeting peptide binds, as listed in Table 2
In the case of PF-786 (LSERERRRLKRGII), the “Target(s)” value is reported as “Mycobacteria spp”.
With PF-C085 (KKFKIFVIINWFYHKYIILNFEENF) the “Target(s)” value was “A. naeslundii, F. nucleatum, P. gingivalis,; also recorded: S. mutans, T. denticola”.
In the case of PF-C259 (AEIQPHCLSVL), the “Target(s)” value is reported as “F. nucleatum, S. mutans”.
With “PF-C065 (DEERYSDSYFLKEKVFYLILALFLILFHQKYLYFLEIITI)” the “Target(s)” value was “A. naeslundii, F. nucleatum, P. gingivalis,; also recorded: S. mutans”.
With PF-790 (PAGPDHLDQRDHR) the “Target(s)” value was “Mycobacteria spp”.
PF-C063 (SHFRKGD) was tested, and the “Target(s)” value was “A. naeslundii, F. nucleatum, S. mutans”.
In the case of PF-C142 (DFPPLSFFRRRFHAYTAPIDNFFGANPF), the “Target(s)” value is reported as “A. naeslundii, F. nucleatum, P. gingivalis,; also recorded: S. mutans, T. denticola”.
In the case of PF-794 (NLYFENQGN), the “Target(s)” value is reported as “S. mutans”.
“PF-C072 (KKMFSLIRKVNWIFFILFIVLDLTNVFPLIRTILFAILSRQ)” was tested, and the “Target(s)” value was “A. naeslundii, F. nucleatum, P. gingivalis,; also recorded: S. mutans, T. denticola”.
For “PF-S003 (ALALLKQDLLNFEGRGRIITSTYLQFNEGCVP)”, the “Target(s)” value was “S. epidermidis, M. luteus, P. mirabilis,; also recorded: E. coli, P. aeruginosa,; also recorded: C. albicans, MRSA, S. pneumoniae,; also recorded: E. faecalis, C. jeikeium,; also recorded: C. jejuni, M. smegmatis”.
For “PF-C135 (KNTHAYLRVLRLSSLILSYQASVYPLFAYLCQQKDY)”, the “Target(s)” value was “A. naeslundii, F. nucleatum, P. gingivalis,; also recorded: S. mutans”.
PF-Y (FIKHFIHRF) was tested, and the “Target(s)” value was “S. mutans”.
For PF-792 (ALHASGIQAI), the “Target(s)” value was “S. mutans”.

Same assay, conditions: microorganism(s) the targeting peptide binds, as listed in Table 2
In the case of 1T-38 (VMFVLTRGRSPRPMIPAY), the “Target(s)” value is reported as “S. mutans, S. aereus, S. epidermidis,; also recorded: C. jeikeium, C. xerosis,; also recorded: C. striatum, P. aeruginosa”.
1T-239 (ADDLLNKRLTDLIMENAETVKTIDLDNSD) was tested, and the “Target(s)” value was “A. naeslundii, S. gordonii, S. mitis,; also recorded: S. mutans, S. oralis, S. sanguinis”.
For 1T-64 (QTVHHIHMHVLGQRQMHWPPG), the “Target(s)” value was “S. aureus, S. epidermidis, C. jeikeium,; also recorded: C. xerosis, C. striatum,; also recorded: P. aeruginosa”.
In the case of “1T-150 (YINRRLKKAFSDADIKEAPAEFYEELRRVQYV)”, the “Target(s)” value is reported as “A. naeslundii, F. nucleatum, P. gingivalis,; also recorded: T. denticola, S. gordonii,; also recorded: S. mitis, S. mutans, S. oralis,; also recorded: S. salivarious, S. sanguinis”.
In the case of 1T-184 (ALLVLNLLLMQFFFGKNM), the “Target(s)” value is reported as “A. naeslundii, F. nucleatum, P. gingivalis,; also recorded: T. denticola, S. gordonii,; also recorded: S. mitis, S. mutans, S. oralis,; also recorded: S. salivarious, S. sanguinis”.
In the case of 1T-207 (SPLEKYGTGSMTALTFLLGCCLLVLSKKSR), the “Target(s)” value is reported as “F. nucleatum, S. sanguinis”.
With “1T-230 (EFLEKFKVLKQPRKANNISKNRVAMIFLTIHKSRGFLSSPY)” the “Target(s)” value was “A. naeslundii, F. nucleatum, P. gingivalis,; also recorded: S. epidermidis, S. gordonii,; also recorded: S. mitis, S. mutans, S. oralis,; also recorded: S. salivarious, S. sanguinis”.
For 1T-176 (PVGDIMSGFLRGANQPRFLLDHISFGS), the “Target(s)” value was “A. naeslundii, P. gingivalis, S. epidermidis,; also recorded: S. gordonii, S. mitis,; also recorded: S. mutans, S. oralis, S. salivarious,; also recorded: S. sanguinis”.
For 1T-63 (EPLILKELVRNLFLFCYARALR), the “Target(s)” value was “S. aureus, S. epidermidis, C. jeikeium,; also recorded: C. xerosis, C. striatum,; also recorded: P. aeruginosa”.
For 1T-159 (IFSLHHFALICSEMGTFAVSKRAKYKWEVL), the “Target(s)” value was “P. gingivalis”.
1T-79 (FGTPWSITNFWKKNFNDRPDFDSDRRRY) was tested, and the “Target(s)” value was “S. pneumoniae”.
For 1T-156 (GRFQISIRGEEKSKVKVQGKGTFTDRNTT), the “Target(s)” value was “A. naeslundii, F. nucleatum, P. gingivalis,; also recorded: T. denticola, S. gordonii,; also recorded: S. mitis, S. mutans, S. oralis,; also recorded: S. salivarious, S. sanguinis”.
In the case of 1T-39 (FGFCVWMYQLLAGPPGPPA), the “Target(s)” value is reported as “S. mutans, P. aeruginosa”.
In the case of 1T-28 (VSRDEAMEFIDREWTTLQPAGKSHA), the “Target(s)” value is reported as “P. aeruginosa”.
With 1T-120 (DVRDRVDLAGADLCAAHATR) the “Target(s)” value was “A. naeslundii, F. nucleatum, P. gingivalis,; also recorded: S. epidermidis, S. gordonii,; also recorded: S. mitis, S. mutans, S. oralis,; also recorded: S. salivarious, S. sanguinis”.
With 1T-117 (GPGVVGPAPFSRLPAHALNL) the “Target(s)” value was “S. mutans”.
In the case of 1T-175 (GEPGSHSGDL), the “Target(s)” value is reported as “A. naeslundii, F. nucleatum, P. gingivalis,; also recorded: S. epidermidis, S. gordonii,; also recorded: S. mitis, S. mutans, S. oralis,; also recorded: S. salivarious, S. sanguinis”.
With 1T-149 (SVRAVKPIDETVARHFPGDFIVN) the “Target(s)” value was “A. naeslundii, F. nucleatum, P. gingivalis,; also recorded: T. denticola, S. gordonii,; also recorded: S. mitis, S. mutans, S. oralis,; also recorded: S. salivarious, S. sanguinis”.
For 1T-141 (KKFIILLFILVQGLIFSATKTLSDIIAL), the “Target(s)” value was “F. nucleatum, P. gingivalis, S. epidermidis,; also recorded: S. gordonii, S. mitis,; also recorded: S. mutans, S. oralis, S. sanguinis”.
For “1T-203 (YPFCLATVDHLPEGLSVTDYERVQRLVSQFLLNKEER)”, the “Target(s)” value was “A. naeslundii, F. nucleatum, P. gingivalis,; also recorded: S. epidermidis, S. gordonii,; also recorded: S. mitis, S. mutans, S. oralis,; also recorded: S. salivarious, S. sanguinis”.
“1T-140 (IKGTIAFVGEDYVEIRVDKGVKLTFRKSAIANVINNNQQ)” was tested, and the “Target(s)” value was “A. naeslundii, F. nucleatum, P. gingivalis,; also recorded: S. epidermidis, S. gordonii,; also recorded: S. mitis, S. mutans, S. oralis,; also recorded: S. salivarious, S. sanguinis”.
In the case of 1T-49 (SLVRIHDQQPWVTRGAFIDAARTCS), the “Target(s)” value is reported as “S. aureus, S. epidermidis, C. jeikeium,; also recorded: P. aeruginosa”.
In the case of 1T-180 (VVFGGGDRLV), the “Target(s)” value is reported as “A. naeslundii, F. nucleatum, P. gingivalis,; also recorded: T. denticola, S. gordonii,; also recorded: S. mitis, S. mutans, S. oralis,; also recorded: S. salivarious, S. sanguinis”.
With 1T-108 (WGPLGPERPLW) the “Target(s)” value was “S. gordonii, S. mitis, S. mutans,; also recorded: S. oralis, S. salivarious, S. sanguinis”.
With 1T-9 (WAWAESPRCVSTRSNIHALAFRVEVAALT) the “Target(s)” value was “M. xanthus”.
With 1T-109 (VTTNVRQGAGS) the “Target(s)” value was “A. naeslundii, S. epidermidis, S. gordonii,; also recorded: S. mitis, S. mutans, S. oralis,; also recorded: S. salivarious, S. sanguinis”.
For “1T-29 (GSVIKKRRKRMSKKKHRKMLRRTRVQRRKLGK)”, the “Target(s)” value was “S. mutans, S. aureus, S. epidermidis,; also recorded: C. jeikeium, C. xerosis,; also recorded: C. striatum, P. aeruginosa”.
1T-3 (VLGIAGGLDAYGELVGGN) was tested, and the “Target(s)” value was “S. mutans, S. gordonii”.
With “1T-200 (MRFKRFDRDYALSGDNVFEVLTASCDVIERNLSYREMCGLMQ)” the “Target(s)” value was “A. naeslundii, F. nucleatum, S. epidermidis,; also recorded: S. gordonii, S. mitis,; also recorded: S. mutans, S. oralis, S. salivarious,; also recorded: S. sanguinis”.
1T-237 (EDPVPNHFTLRRNKKEKPSKS) was tested, and the “Target(s)” value was “S. sanguinis”.
